Test results: patent US7064120B2, “Tricyclic pyridyl carboxamides and derivatives thereof tocolytic oxytocin receptor antagonists” (Wyeth, priority 2001, dated 2006)

These compounds were tested against T1, human vasopressin V1a receptor subtype (Homo sapiens, UniProt P37288) (assay: Vasopressin binding in CHO cell membranes expressing human vasopressin V1a subtype receptors ([3H]Manning ligand radioligand binding)). Conditions: 100 nM.
T1 construct: host or cells: CHO cells, stably transfected (pZeoSV vector for the Thibonnier line)
T1 sequence (P37288 whole entry): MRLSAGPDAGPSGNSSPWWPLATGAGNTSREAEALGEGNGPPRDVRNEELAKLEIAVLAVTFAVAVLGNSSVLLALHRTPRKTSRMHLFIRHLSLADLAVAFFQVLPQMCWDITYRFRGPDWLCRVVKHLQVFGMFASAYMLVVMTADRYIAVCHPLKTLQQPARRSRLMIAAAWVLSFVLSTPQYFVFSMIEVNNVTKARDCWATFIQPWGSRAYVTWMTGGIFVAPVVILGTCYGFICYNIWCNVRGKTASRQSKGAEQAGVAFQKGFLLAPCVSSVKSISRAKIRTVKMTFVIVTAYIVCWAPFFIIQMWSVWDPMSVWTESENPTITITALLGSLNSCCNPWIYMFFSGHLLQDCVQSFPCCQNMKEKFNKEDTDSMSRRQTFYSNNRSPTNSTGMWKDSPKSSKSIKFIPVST
In short: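 Membranes from CHO cells expressing human V1a, 25–50 μg protein/well, incubated 60 min at room temperature with [3H]Manning ligand (20 μL of 8 nM stock) in 50 mM Tris-HCl pH 7.4 with BSA, MgCl2 and protease inhibitors. Filtration then scintillation counting; reported as % inhibition or IC50 (nM).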

| Structure (SMILES) | inhibition at 0.1 µM [%] | V1a % inhibition @ 100 nM [%] |
| --- | --- | --- |
| COc1cc(C(=O)N2Cc3ccc(C(=O)NCc4ccncc4)n3Cc3ccccc32)ccc1-c1cccc2ccccc12 [Example 96, 10-[3-Methoxy-4-(naphthalen-1-yl)benzoyl]-N-(4-pyridinylmethyl)-10,11-dihydro-5H-pyrrolo[2,1-c][1,4]benzodiazepine-3-carboxamide] | 7 |  |
| COc1ccccc1-c1ccc(C(=O)N2Cc3ccc(C(=O)N4CCN(c5ccccn5)CC4)n3Cc3ccccc32)cc1OC [Example 84, {10-[(2,2′-Dimethoxy-[1,1′-biphenyl]-4-yl)carbonyl]-10,11-dihydro-5H-pyrrolo[2,1-c][1,4]benzodiazepin-3-yl}[4-(2-pyridinyl)-1-piperazinyl]methanone] | 3 |  |
| Cc1ccccc1-c1ccc(C(=O)N2Cc3ccc(C(=O)N(C)Cc4cccnc4)n3Cc3ccccc32)cc1 [Example 105, N-Methyl-10-[(2′-methyl-[1,1′-biphenyl]-4-yl)carbonyl]-N-(3-pyridinylmethyl)-10,11-dihydro-5H-pyrrolo[2,1-c][1,4]benzodiazepine-3-carboxamide] | 0 |  |
| CN(CCc1ccccn1)C(=O)c1ccc2n1Cc1ccccc1N(C(=O)c1ccc(-c3cccc4ccccc34)cc1Cl)C2 [Example 73, 10-[2-Chloro-4-(naphthalen-1-yl)benzoyl]-N-methyl-N-[2-(2-pyridinyl)ethyl]-10,11-dihydro-5H-pyrrolo[2,1-c][1,4]benzodiazepine-3-carboxamide] | 6 |  |
| Cc1ccccc1-c1ccc(C(=O)N2Cc3ccc(C(=O)N(C)CCc4ccccn4)n3Cc3ccccc32)cc1 [Example 68, N-Methyl-10-[(2′-methyl-[1,1′-biphenyl]-4-yl)carbonyl]-N-[2-(2-pyridinyl)ethyl]-10,11-dihydro-5H-pyrrolo[2,1-c][1,4]benzodiazepine-3-carboxamide] | 81 |  |
| Cc1ccccc1-c1ccc(C(=O)N2Cc3ccc(C(=O)N4CCN(c5ccccn5)CC4)n3Cc3ccccc32)cc1C [Example 76, {10-[(2,2′-Dimethyl-[1,1′-biphenyl]-4-yl)carbonyl]-10,11-dihydro-5H-pyrrolo[2,1-c][1,4]benzodiazepin-3-yl}[4-(2-pyridinyl)-1-piperazinyl]methanone] | 11 |  |
| COc1ccccc1-c1ccc(C(=O)N2Cc3ccc(C(=O)N(C)CCc4ccccn4)n3Cc3ccccc32)cc1C [Example 65, 10-[(2′-Methoxy-2-methyl-[1,1′-biphenyl]-4-yl)carbonyl]-N-methyl-N-[2-(2-pyridinyl)ethyl]-10,11-dihydro-5H-pyrrolo[2,1-c][1,4]benzodiazepine-3-carboxamide] | 25 |  |
| Cc1cc(C(=O)N2Cc3ccc(C(=O)NCc4ccncc4)n3Cc3ccccc32)ccc1-c1ccccc1C(F)(F)F [Example 100, 10-{[2-Methyl-2′-trifluoromethyl-[1,1′-biphenyl]-4-yl]carbonyl}-N-(4-pyridinylmethyl)-10,11-dihydro-5H-pyrrolo[2,1-c][1,4]benzodiazepine-3-carboxamide] | 10 |  |
| COc1cccc(-c2cc(OC)c(C(=O)N3Cc4ccc(C(=O)N5CCN(c6ccccn6)CC5)n4Cc4ccccc43)cc2Cl)c1 [Example 82, {10-[(6-Chloro-3,3′-dimethoxy-[1,1′-biphenyl]-4-yl)carbonyl]-10,11-dihydro-5H-pyrrolo[2,1-c][1,4]benzodiazepin-3-yl}[4-(2-pyridinyl)-1-piperazinyl]methanone] | -1 |  |
| COc1ccccc1-c1ccc(C(=O)N2Cc3ccc(C(=O)N4CCN(c5ccccn5)CC4)n3Cc3ccccc32)cc1C [Example 75, {10-[(2′-Methoxy-2-methyl-[1,1′-biphenyl]-4-yl)carbonyl]-10,11-dihydro-5H-pyrrolo[2,1-c][1,4]benzodiazepin-3-yl}[4-(2-pyridinyl)-1-piperazinyl]methanone] | -1 |  |
| COc1cc(-c2ccccc2C)c(Cl)cc1C(=O)N1Cc2ccc(C(=O)NCc3ccncc3)n2Cc2ccccc21 [Example 94, 10-[(6-Chloro-3-methoxy-2′-methyl-[1,1′-biphenyl]-4-yl)carbonyl]-N-(4-pyridinylmethyl)-10,11-dihydro-5H-pyrrolo[2,1-c][1,4]benzodiazepine-3-carboxamide] | 0 |  |
| COc1ccccc1-c1ccc(C(=O)N2Cc3ccc(C(=O)NCc4ccncc4)n3Cc3ccccc32)cc1 [Example 91, 10-[(2′-Methoxy-[1,1′-biphenyl]-4-yl)carbonyl]-N-(4-pyridinylmethyl)-10,11-dihydro-5H-pyrrolo[2,1-c][1,4]benzodiazepine-3-carboxamide] | 11 |  |
| COc1ccccc1-c1ccc(C(=O)N2Cc3ccc(C(=O)NCc4ccncc4)n3Cc3ccccc32)cc1C [Example 88, 10-[(2′-Methoxy-2-methyl-[1,1′-biphenyl]-4-yl)carbonyl]-N-(4-pyridinylmethyl)-10,11-dihydro-5H-pyrrolo[2,1-c][1,4]benzodiazepine-3-carboxamide] | 8 |  |
| COc1cc(C(=O)N2Cc3ccc(C(=O)NCc4ccncc4)n3Cc3ccccc32)ccc1-c1ccccc1C [Example 93, 10-[(2-Methoxy-2′-methyl-[1,1′-biphenyl]-4-yl)carbonyl]-N-(4-pyridinylmethyl)-10,11-dihydro-5H-pyrrolo[2,1-c][1,4]benzodiazepine-3-carboxamide] | 50 |  |
| COc1cccc(-c2ccc(C(=O)N3Cc4ccc(C(=O)NCc5ccncc5)n4Cc4ccccc43)cc2C)c1 [Example 90, 10-[(3′-Methoxy-2-methyl-[1,1′-biphenyl]-4-yl)carbonyl]-N-(4-pyridinylmethyl)-10,11-dihydro-5H-pyrrolo[2,1-c][1,4]benzodiazepine-3-carboxamide] | 14 |  |
| COc1ccccc1-c1ccc(C(=O)N2Cc3ccc(C(=O)N4CCN(c5ccccn5)CC4)n3Cc3ccccc32)cc1 [Example 78, {10-[(2′-Methoxy-[1,1′-biphenyl]-4-yl)carbonyl]-10,11-dihydro-5H-pyrrolo[2,1-c][1,4]benzodiazepin-3-yl}[4-(2-pyridinyl)-1-piperazinyl]methanone] | 6 |  |
| Cc1cc(C(=O)N2Cc3ccc(C(=O)N(C)CCc4ccccn4)n3Cc3ccccc32)ccc1-c1ccccc1C(F)(F)F [Example 74, N-Methyl-10-{[2-methyl-2′-trifluoromethyl-[1,1′-biphenyl]-4-yl]carbonyl}-N-[2-(2-pyridinyl)ethyl]-10,11-dihydro-5H-pyrrolo[2,1-c][1,4]benzodiazepine-3-carboxamide] | 63 |  |
| COc1cccc(-c2ccc(C(=O)N3Cc4ccc(C(=O)N(C)CCc5ccccn5)n4Cc4ccccc43)cc2OC)c1 [Example 72, 10-[(2,3′-Dimethoxy-[1,1′-biphenyl]-4-yl)carbonyl]-N-methyl-N-[2-(2-pyridinyl)ethyl]-10,11-dihydro-5H-pyrrolo[2,1-c][1,4]benzodiazepine-3-carboxamide] | 54 |  |
| COc1cccc(-c2ccc(C(=O)N3Cc4ccc(C(=O)N5CCN(c6ccccn6)CC5)n4Cc4ccccc43)cc2C)c1 [Example 77, {10-[(3′-Methoxy-2-methyl-[1,1′-biphenyl]-4-yl)carbonyl]-10,11-dihydro-5H-pyrrolo[2,1-c][1,4]benzodiazepin-3-yl}[4-(2-pyridinyl)-1-piperazinyl]methanone] | 5 |  |
| Cc1cc(C(=O)N2Cc3ccc(C(=O)N4CCN(c5ccncc5)CC4)n3Cc3ccccc32)ccc1-c1ccccc1C(F)(F)F [Example 1] |  | 9 |
| COc1ccccc1-c1ccc(C(=O)N2Cc3ccc(C(=O)N(C)CCc4ccccn4)n3Cc3ccccc32)cc1 [Example 67, 10-[(2′-Methoxy-[1,1′-biphenyl]-4-yl)carbonyl]-N-methyl-N-[2-(2-pyridinyl)ethyl]-10,11-dihydro-5H-pyrrolo[2,1-c][1,4]benzodiazepine-3-carboxamide] | 40 |  |
| Cc1ccccc1-c1ccc(C(=O)N2Cc3ccc(C(=O)N(C)CCc4ccccn4)n3Cc3ccccc32)cc1C [Example 66, 10-[(2,2′-Dimethyl-[1,1′-biphenyl]-4-yl)carbonyl]-N-methyl-N-[2-(2-pyridinyl)ethyl]-10,11-dihydro-5H-pyrrolo[2,1-c][1,4]benzodiazepine-3-carboxamide] | 58 |  |
| O=C(NCc1ccncc1)c1ccc2n1Cc1ccccc1N(C(=O)c1ccc(-c3cccc4ccccc34)cc1Cl)C2 [Example 99, 10-[2-Chloro-4-(naphthalen-1-yl)benzoyl]-N-(4-pyridinylmethyl)-10,11-dihydro-5H-pyrrolo[2,1-c][1,4]benzodiazepine-3-carboxamide] | -7 |  |

Same assay, conditions: value in parentheses

| Structure (SMILES) | IC50 [nM] |
| --- | --- |
| COc1cc(-c2ccccc2Cl)c(Cl)cc1C(=O)N1Cc2ccc(C(=O)N(C)Cc3cccnc3)n2Cc2ccccc21 [Example 6, 10-[(2′,6-Dichloro-3-methoxy-[1,1′-biphenyl]-4-yl)carbonyl]-N-methyl-N-(pyridin-3-ylmethyl)-10,11-dihydro-5H-pyrrolo[2,1-c][1,4]benzodiazepine-3-carboxamide] | 928 |
| COc1cccc(-c2ccc(C(=O)N3Cc4ccc(C(=O)N(C)CCc5ccccn5)n4Cc4ccccc43)cc2C)c1 [Example 62, 10-[(3′-Methoxy-2-methyl-[1,1′-biphenyl]-4-yl)carbonyl]-N-methyl-N-[2-(2-pyridinyl)ethyl]-10,11-dihydro-5H-pyrrolo[2,1-c][1,4]benzodiazepine-3-carboxamide] | 177 |
| COc1ccccc1-c1ccc(C(=O)N2Cc3ccc(C(=O)N4CCN(c5ccncc5)CC4)n3Cc3ccccc32)cc1C [Example 113, {10-[(2′-Methoxy-2-methyl-[1,1′-biphenyl]-4-yl)carbonyl]-10,11-dihydro-5H-pyrrolo[2,1-c][1,4]benzodiazepin-3-yl}[4-(4-pyridinyl)-1-piperazinyl]methanone] | 365 |
